Earlier results on one compound are cited in US8350024B2, “Sugar derivatives and application of same” (priority 2006, dated 2013).

The data set deals with herpes simplex virus type 2. To be noted: conventional drug, comparison value.

Regarding `Nc1nc2c(ncn2COCCO)c(=O)[nH]1` [acyclovir], the selection index entry was “about 800”.
